{"source": "patent US7479498B2", "about": "“Treatments for viral infections” (priority 1999, dated 2009)", "key": {"P. falciparum": {"system": "P. falciparum", "settings": "cited from earlier work"}, "[1]": {"settings": "cited from earlier work; for plasma half-life: after oral primaquine; for time to peak (maximum) plasma concentration: oral"}, "[2]": {"settings": "cited from earlier work"}, "HIV": {"system": "HIV", "assay_type": "cell-based", "settings": "standardized extract containing 1-10 μg/ml quercetin", "text": "The in vitro effect of calcium channel blockers on HIV infection both in HIV adapted cell lines (HUT/H9) as well as acutely infected peripheral blood lymphocytes were studied."}, "GSH production": {"system": "GSH production", "settings": "cited from earlier work"}, "P. vivax": {"system": "P. vivax", "settings": "in vivo; cited from earlier work"}}, "note": "“Also recorded” adds a separate entry of the source. Structures can show the parent of a compound that is named as a salt. Where two headings read alike, the source gives them in different places."}
{"smiles": "OC(c1cc(C(F)(F)F)nc2c(C(F)(F)F)cccc12)C1CCCCN1", "note": "(centres unmarked) [Mefloquine]", "values": [{"measurement": "plasma level necessary for chemo-suppression", "setting": "P. falciparum; in vivo", "result": "200 to 300", "unit": "ng/mL"}, {"measurement": "half-life (elimination / urinary excretion)", "setting": "[1]; in vivo", "result": "312 to 792", "unit": "h"}]}
{"smiles": "COc1cc(NC(C)CCC(=O)O)c2ncccc2c1", "note": "(centres unmarked) [carboxyprimaquine]", "values": [{"measurement": "peak serum concentration", "setting": "[1]; after 14 daily doses of primaquine", "result": "432 to 1240", "unit": "ng/mL"}, {"measurement": "plasma half-life", "setting": "[1]", "result": "22 to 30", "unit": "h"}, {"measurement": "plasma concentration relative to parent compound", "setting": "[1]; in vivo", "result": "more than ten times greater"}]}
{"smiles": "O=C1NC(=O)C(c2ccccc2)(c2ccccc2)N1", "note": "[phenytoin, 5,5-diphenyl-2,4-imidazolidinedione]", "values": [{"measurement": "solubility in water / aqueous mixtures", "setting": "[2]", "result": "poorly soluble in aqueous mixtures; also recorded: water insoluble"}]}
{"smiles": "O=c1c(O)c(-c2ccc(O)c(O)c2)oc2cc(O)cc(O)c12", "note": "[quercetin, 2-(3,4-Dihydroxyphenyl)-3,5,7-trihydroxy-4H-1-benzopyran-4-one]", "values": [{"measurement": "reduction of HIV activity", "setting": "HIV", "result": "5-20%"}, {"measurement": "increase of GSH production", "setting": "GSH production", "result": 50, "unit": "%"}, {"measurement": "absorption in the jejunum", "setting": "[1]; in vivo", "result": 66, "unit": "%"}]}
{"smiles": "CCN(CC)CCCC(C)Nc1ccnc2cc(Cl)ccc12", "note": "(centres unmarked) [Chloroquine]", "values": [{"measurement": "therapeutically effective plasma concentration", "setting": "P. vivax", "result": "~15", "unit": "µg/L"}, {"measurement": "therapeutically effective plasma concentration", "setting": "P. falciparum; sensitive P. falciparum", "result": "approximately 30 μg/L"}, {"measurement": "apparent volume of distribution", "setting": "[1]; in vivo", "result": "about 13,000 L"}, {"measurement": "half-life (elimination / urinary excretion)", "setting": "[1]; in vivo", "result": "72 to 120", "unit": "h"}, {"measurement": "plasma protein binding", "setting": "[1]; in vivo", "result": "50-65%"}, {"measurement": "time to peak (maximum) plasma concentration", "setting": "[1]", "result": "about 3 hours"}]}
{"smiles": "O=C1NC(=O)C(c2ccccc2)(c2ccccc2)N1", "note": "[Phenytoin sodium, monosodium salt of 5,5-diphenyl hydantoinate]", "values": [{"measurement": "solubility in water / aqueous mixtures", "setting": "[2]", "result": "readily soluble in water; also recorded: highly water-soluble"}]}
{"smiles": "C=C[C@H]1C[N@@]2CC[C@H]1C[C@H]2[C@H](O)c1ccnc2ccc(OC)cc12", "note": "[Quinine]", "values": [{"measurement": "mean plasma concentration effective to eliminate asexual parasites", "setting": "P. vivax", "result": "over 5 μg/mL"}, {"measurement": "cerebrospinal fluid concentration as share of plasma level", "setting": "[1]; in vivo", "result": "about 7%"}, {"measurement": "plasma concentration accompanied by adverse reactions of cinchonism", "setting": "[1]; in vivo", "result": "over 7 μg/mL"}, {"measurement": "red blood cell level as share of plasma level", "setting": "[1]; in vivo", "result": "about 20%"}, {"measurement": "share of drug metabolized in the liver", "setting": "[1]; in vivo", "result": "Approximately 80%"}, {"measurement": "time to peak (maximum) plasma concentration", "setting": "[1]", "result": "1 to 3", "unit": "h"}, {"measurement": "plasma level", "setting": "[1]; standard oral doses, normal or mild infection", "result": "about 7 μg/mL"}]}
{"smiles": "COc1cc(NC(C)CCCN)c2ncccc2c1", "note": "(centres unmarked) [Primaquine]", "values": [{"measurement": "plasma half-life", "setting": "[1]", "result": "3 to 8", "unit": "h"}, {"measurement": "peak serum concentration", "setting": "[1]; oral primaquine", "result": "50 to 66", "unit": "ng/mL"}, {"measurement": "time to peak (maximum) plasma concentration", "setting": "[1]", "result": "1 to 2", "unit": "h"}]}
